Literature values as cited in patent US20240122227A1, “AEROSOLIZABLE MATERIAL” (Nicoventures Trading Limited, priority 2019, published 2024).

Molecular target: CB2 receptor compared to the CB1 receptor (Homo sapiens, UniProt P34972)
Conditions: see Br J Pharmacol. 2001 October; 134(4): 845-852

Chain of CB2 receptor compared to the CB1 receptor (P34972 whole entry): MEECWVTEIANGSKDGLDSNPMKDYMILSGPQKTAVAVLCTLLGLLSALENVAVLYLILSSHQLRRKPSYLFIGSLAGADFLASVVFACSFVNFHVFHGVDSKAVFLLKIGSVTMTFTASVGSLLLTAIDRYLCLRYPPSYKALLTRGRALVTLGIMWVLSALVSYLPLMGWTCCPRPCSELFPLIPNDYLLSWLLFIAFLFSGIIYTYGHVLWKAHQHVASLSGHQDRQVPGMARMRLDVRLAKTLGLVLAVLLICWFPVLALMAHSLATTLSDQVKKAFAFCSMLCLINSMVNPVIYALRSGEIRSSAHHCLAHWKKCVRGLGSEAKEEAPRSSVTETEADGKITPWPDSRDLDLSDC

Row | SMILES | selectivity for the CB2 receptor compared to the CB1 receptor
1 | C=C(C)[C@H]1CCC(C)=C[C@@H]1c1c(O)cc(CCCCC)cc1O [(+)-cannabidiol] | increased selectivity for the CB2 receptor compared to the CB1 receptor
2 | C=C(C)[C@@H]1CCC(C)=C[C@H]1c1c(O)cc(CCCCC)cc1O [(−)-cannabidiol] | does not show any selectivity between the two receptors
